Measured values as given in article PMC4308718 (Nature Communications, 2015).

Legend:
AtPHT4;6 = target: T1, AtPHT4;6 (Arabidopsis thaliana, UniProt Q9FKV1); settings: labelled compound (32P); 100 μM phosphate; 0.1 M sodium acetate; pH 7.0
T1 construct: gene ANTR5

AtPHT4;5 = target: T2, AtPHT4;5 (Arabidopsis thaliana, UniProt Q3E9A0); settings: labelled compound (32P); 100 μM phosphate; 0.1 M sodium acetate; pH 7.0
T2 construct: gene ANTR6

AtPHT4;3 = target: T3, AtPHT4;3 (Arabidopsis thaliana, UniProt Q66GI9); settings: labelled compound (32P); 100 μM phosphate; 0.1 M sodium acetate; pH 7.0
T3 construct: gene ANTR4
T3 sequence (Q66GI9 whole entry): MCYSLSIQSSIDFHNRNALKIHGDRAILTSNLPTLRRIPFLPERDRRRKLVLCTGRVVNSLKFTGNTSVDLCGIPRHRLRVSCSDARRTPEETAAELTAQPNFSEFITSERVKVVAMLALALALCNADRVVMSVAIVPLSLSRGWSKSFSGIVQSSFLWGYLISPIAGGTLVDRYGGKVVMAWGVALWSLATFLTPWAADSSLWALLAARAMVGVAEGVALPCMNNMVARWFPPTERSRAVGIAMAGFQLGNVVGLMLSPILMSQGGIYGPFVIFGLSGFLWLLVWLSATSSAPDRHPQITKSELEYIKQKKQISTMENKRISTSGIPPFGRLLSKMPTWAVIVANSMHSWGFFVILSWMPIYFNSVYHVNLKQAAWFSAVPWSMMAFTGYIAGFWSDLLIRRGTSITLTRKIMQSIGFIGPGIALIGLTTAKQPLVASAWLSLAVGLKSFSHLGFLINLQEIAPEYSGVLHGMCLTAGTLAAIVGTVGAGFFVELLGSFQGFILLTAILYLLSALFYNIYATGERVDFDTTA

AtPHT4;4 = target: T4, AtPHT4;4 (Arabidopsis thaliana, UniProt Q8GX78); test: inhibition of […]-ascorbate uptake into proteoliposomes, […] min; assay type: biochemical; settings: 1 and 10 μM inhibitor; 100 μM ascorbate; 2 μM valinomycin; pH 7.0; 27 °C
T4 construct: gene PHT4; cDNA from ATG; His-tag and soluble alpha-helix protein (beta) at both ends, beta-pET-28a(+)-beta; E. coli C43(DE3); purified by Ni-NTA; proteoliposomes
T4 sequence (Q8GX78 1-541): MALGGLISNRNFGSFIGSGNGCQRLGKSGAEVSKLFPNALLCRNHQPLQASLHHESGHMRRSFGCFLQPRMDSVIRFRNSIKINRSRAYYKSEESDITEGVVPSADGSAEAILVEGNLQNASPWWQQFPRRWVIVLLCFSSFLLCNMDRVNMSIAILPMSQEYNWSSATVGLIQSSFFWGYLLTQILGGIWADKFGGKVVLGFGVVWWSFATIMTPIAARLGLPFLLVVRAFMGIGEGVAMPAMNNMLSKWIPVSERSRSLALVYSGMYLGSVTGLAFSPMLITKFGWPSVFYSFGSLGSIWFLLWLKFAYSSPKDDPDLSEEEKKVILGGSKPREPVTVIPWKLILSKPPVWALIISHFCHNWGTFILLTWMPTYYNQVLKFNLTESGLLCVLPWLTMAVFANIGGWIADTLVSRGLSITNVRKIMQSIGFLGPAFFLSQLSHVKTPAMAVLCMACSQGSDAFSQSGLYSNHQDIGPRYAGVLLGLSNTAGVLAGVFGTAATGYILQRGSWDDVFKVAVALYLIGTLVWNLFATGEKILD

purified protein = substrate: O=C1O[C@H]([C@@H](O)CO)C(O)=C1O; test: purified protein; settings: labelled compound (14C), valinomycin-induced inside-positive membrane potential, 4 mM KCl, pH 7.0, 27 °C

T1 sequence (Q9FKV1 whole entry): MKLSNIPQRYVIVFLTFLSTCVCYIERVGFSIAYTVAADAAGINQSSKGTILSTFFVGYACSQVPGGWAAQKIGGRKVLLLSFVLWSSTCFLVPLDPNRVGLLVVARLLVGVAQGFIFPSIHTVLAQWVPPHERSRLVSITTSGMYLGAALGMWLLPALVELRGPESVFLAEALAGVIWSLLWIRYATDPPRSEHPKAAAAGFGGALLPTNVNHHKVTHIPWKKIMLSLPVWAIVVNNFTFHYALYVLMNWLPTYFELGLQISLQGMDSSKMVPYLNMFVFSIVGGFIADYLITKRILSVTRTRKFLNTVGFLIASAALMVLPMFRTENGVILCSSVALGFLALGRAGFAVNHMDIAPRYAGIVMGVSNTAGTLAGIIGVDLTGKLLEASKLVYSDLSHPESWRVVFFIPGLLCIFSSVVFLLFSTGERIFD
T2 sequence (Q3E9A0 whole entry): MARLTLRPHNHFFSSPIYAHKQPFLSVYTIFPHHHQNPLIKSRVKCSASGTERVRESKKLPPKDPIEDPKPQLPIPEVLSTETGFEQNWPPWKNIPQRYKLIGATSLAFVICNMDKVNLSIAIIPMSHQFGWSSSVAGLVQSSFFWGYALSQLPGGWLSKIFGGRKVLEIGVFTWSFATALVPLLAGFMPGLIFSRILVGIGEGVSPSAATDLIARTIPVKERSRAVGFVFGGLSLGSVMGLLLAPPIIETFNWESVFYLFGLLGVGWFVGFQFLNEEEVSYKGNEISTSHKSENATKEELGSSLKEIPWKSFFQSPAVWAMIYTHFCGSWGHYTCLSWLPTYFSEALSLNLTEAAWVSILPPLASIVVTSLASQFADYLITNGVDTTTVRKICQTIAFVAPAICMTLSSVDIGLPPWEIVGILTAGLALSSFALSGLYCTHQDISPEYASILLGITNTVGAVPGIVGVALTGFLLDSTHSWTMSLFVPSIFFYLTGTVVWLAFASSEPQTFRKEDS

Question: What does the source list for O=P(O)(O)O [inorganic phosphate]?
Answer: Na+-driven 32P-phosphate uptake into proteoliposomes, 2 min (AtPHT4;6): Na^+/Pi transport activity was detected in proteoliposomes containing all of these transporters; Na+-driven 32P-phosphate uptake into proteoliposomes, 2 min (AtPHT4;5): Na^+/Pi transport activity was detected in proteoliposomes containing all of these transporters; Na+-driven 32P-phosphate uptake into proteoliposomes, 2 min (AtPHT4;3): Na^+/Pi transport activity was detected in proteoliposomes containing all of these transporters

Question: For Cc1cc(-c2ccc(/N=N/c3ccc4c(S(=O)(=O)O)cc(S(=O)(=O)O)c(N)c4c3O)c(C)c2)ccc1/N=N/c1ccc2c(S(=O)(=O)O)cc(S(=O)(=O)O)c(N)c2c1O [Evans blue], which “inhibition of 14C-ascorbate uptake into proteoliposomes, 1 min” value (AtPHT4;4) is on record?
Answer: typical inhibitors of mammalian SLC17 family transporters, inhibited ascorbate uptake

Question: Which “inhibition of 14C-ascorbate uptake into proteoliposomes, 1 min” value (AtPHT4;4) does the source give for O=S(=O)(O)c1cc(N=C=S)ccc1/C=C/c1ccc(N=C=S)cc1S(=O)(=O)O [4,4′-diisothiocyano-2,2′-stilbenedisulphonic acid] here?
Answer: typical inhibitors of mammalian SLC17 family transporters, inhibited ascorbate uptake

B1: AtPHT4;4 (Arabidopsis thaliana) (protein)
chain: MALGGLISNRNFGSFIGSGNGCQRLGKSGAEVSKLFPNALLCRNHQPLQASLHHESGHMRRSFGCFLQPRMDSVIRFRNSIKINRSRAYYKSEESDITEGVVPSADGSAEAILVEGNLQNASPWWQQFPRRWVIVLLCFSSFLLCNMDRVNMSIAILPMSQEYNWSSATVGLIQSSFFWGYLLTQILGGIWADKFGGKVVLGFGVVWWSFATIMTPIAARLGLPFLLVVRAFMGIGEGVAMPAMNNMLSKWIPVSERSRSLALVYSGMYLGSVTGLAFSPMLITKFGWPSVFYSFGSLGSIWFLLWLKFAYSSPKDDPDLSEEEKKVILGGSKPREPVTVIPWKLILSKPPVWALIISHFCHNWGTFILLTWMPTYYNQVLKFNLTESGLLCVLPWLTMAVFANIGGWIADTLVSRGLSITNVRKIMQSIGFLGPAFFLSQLSHVKTPAMAVLCMACSQGSDAFSQSGLYSNHQDIGPRYAGVLLGLSNTAGVLAGVFGTAATGYILQRGSWDDVFKVAVALYLIGTLVWNLFATGEKILD
Question: With B1 as the molecule, how does the Km (purified protein) read?
Answer: 1200 µM
